# Source: patent publication US10266510B2, “Antimicrobial and cytotoxic compounds and methods for treating cancer, a bacterial infection, and/or a fungal infection” (King Abdulaziz University, priority 2017, dated 2019)
# Experiments:
# Test in all cases: Well diffusion agar method, inhibition zone
# Type in all cases: cell-based
# [1] = system: Escherichia coli ATCC 25922; settings: compound at 50 μg/mL in DMSO, 37° C., 24 h; for zone of inhibition at 50 µg/mL: Escherichia coli, ATCC25922, read-out: Inhibition zone, E. coli
# From the text: (§1) The ability to inhibit the growth of Gram-positive and Gram-negative bacteria, yeasts and filamentous fungi was observed using an overlay method (S. R. Connell, D. M. Tracz, K. H. Nierhaus, D. E. Taylor, Antimicrob. Agents Chemother. 47, 3675 (2003), incorporated herein by reference in its entirety).
# (§2) The common pathogenic and food spoilage microorganisms were selected for their relevance in bakery products and other food: the gram-positive bacteria: Bacillus subtilits NRRL-B-4219, Staphylococcus aureus ATCC 6538, Enterococcus faecalis ATCC 19433; the gram negative bacteria: Escherichia coli ATCC 25922, Pseudomonas aeruginosa ATCC 9027, Proteus sp.; yeasts, such as Candida albicans ATCC 10231; and fungi: Aspergillus niger NRRL 2766 (equivalent to ATCC 16888), and Aspergillus flavus ATCC 16883. The bacteria were slanted on nutrient agar (Merck, Darmstadt, Germany), yeast was slanted and mentioned on Sabaroud's agar medium (Lab M., Bury, Lancashire, UK) and the fungi was slanted and mentioned on the potato Dextrose Agar medium (Lab M Limited, Bury, Lancashire, UK). Mueller-Hinton agar (Lab M., Bury, Lancashire, UK) following the manufacturer's instructions was used for the assay.
# (§3) All compounds were dissolved in dimethyl sulfoxide (RFCL Limited, New Delhi, India) at 50 μg/mL concentration as shown in Table 4 in comparison with different standard antibiotics. Antibiotic discs of Streptomycin (S) (10 μg), Oxytetracycline (T) (30 μg), and Tetracyciline (TE) (30 μg) were used as positive controls for bacteria. Neomycin (N) (30 μg), was used for fungi.
# (§4) The antibacterial screening was performed with the well diffusion agar method (S. T. Williams, M. Goodfellow, E. M. H. Wellington, J. C. Vickers, G. Alderson, P. H. A. Sneath, S. M. J. Sackins, A. M. Mortimer, J. Gen. Microbiol. 129, 1815(1983); and B. Bonev, J. Hooper, J. Parisot, J. Antimicrob. Chemother., 61, 1295(2008), each incorporated herein by reference in their entirety). The organisms were streaked in radial patterns on the agar plates. Plates were incubated under aerobic conditions at 37° C. and 28° C. for 24 h and 48 h for bacteria and fungi, respectively. All prepared solutions were treated under the same conditions under the same incubated plates. All tests were performed in triplicate. Plates were examined for evidence of antimicrobial activities, represented by a zone of inhibition of the microorganism's growth around the holes, and diameters of clear zones were expressed in millimeters (R. Cruickshank, J. P. Duguid, B. P. Marmion, R. H. A. Swain, The practice of medicinal microbiology. In Medical Microbiology, 12th ed.; Churchill Livingstone: Edinburgh, UK, Volume 11, pp. 196-202 (1975), incorporated herein by reference in its entirety).
# [2] = system: Aspergillus flavus ATCC 16883; settings: for zone of inhibition at 50 µg/mL: Aspergillus flavus, ATCC16883; for Antifungal activity (in words): A. flavus, in comparison with Neomycin
# From the text: as §1, §2, §3, §4
# [3] = system: Aspergillus niger NRRL 2766; settings: for zone of inhibition at 50 µg/mL / Antifungal effect (in words): Aspergillus niger; for zone of inhibition at 50 µg/mL: NRRL2766; for Antifungal effect (in words): in comparison with Neomycin
# From the text: as §1, §2, §3, §4
# [4] = system: Enterococcus faecalis ATCC 19433; settings: compound at 50 μg/mL in DMSO, 37° C., 24 h; for zone of inhibition at 50 µg/mL: Enterococcus faecalis, ATCC19433, read-out: Inhibition zone, Ent. faecalis
# From the text: as §1, §2, §3, §4
# [5] = system: Pseudomonas aeruginosa ATCC 9027; settings: compound at 50 μg/mL in DMSO, 37° C., 24 h; for zone of inhibition at 50 µg/mL: Pseudomonas aeruginosa, ATCC9027, read-out: Inhibition zone, P. aeruginosa
# From the text: as §1, §2, §3, §4
# Proteus sp. = settings: compound at 50 μg/mL in DMSO; 37° C., 24 h
# From the text: as §1, §2, §3, §4
# [6] = system: Staphylococcus aureus ATCC 6538; settings: compound at 50 μg/mL in DMSO, 37° C., 24 h; for zone of inhibition at 50 µg/mL: Staphylococcus aureus, ATCC6538, read-out: Inhibition zone, S. aureus
# From the text: as §1, §2, §3, §4
# [7] = system: Bacillus subtilits NRRL-B-4219; settings: compound at 50 μg/mL in DMSO, 37° C., 24 h; for zone of inhibition at 50 µg/mL: Bacillus, NRRLB4219
# From the text: as §1, §2, §3, §4
# [8] = system: Candida albicans ATCC 10231; settings: compound at 50 μg/mL in DMSO, 28° C., 48 h; for zone of inhibition at 50 µg/mL: Candida albicans, ATCC10231
# From the text: as §1, §2, §3, §4
# [9] = compound at 50 μg/mL in DMSO, 28° C., 48 h
Molecule,zone of inhibition at 50 µg/mL [1] [mm],"zone of inhibition at 50 µg/mL [2, 9] [mm]","zone of inhibition at 50 µg/mL [3, 9] [mm]",zone of inhibition at 50 µg/mL [4] [mm],zone of inhibition at 50 µg/mL [5] [mm],zone of inhibition at 50 µg/mL (Proteus sp.) [mm],zone of inhibition at 50 µg/mL [6] [mm],zone of inhibition at 50 µg/mL [7] [mm],zone of inhibition at 50 µg/mL [8] [mm],Antifungal activity (in words) [2],Antifungal effect (in words) [3],"Inhibition zone, E. coli [1] [mm]","Inhibition zone, A. flavus [2, 9] [mm]","Inhibition zone, A. niger [3, 9] [mm]","Inhibition zone, Ent. faecalis [4] [mm]","Inhibition zone, P. aeruginosa [5] [mm]","Inhibition zone, Proteus sp. (Proteus sp.) [mm]","Inhibition zone, S. aureus [6] [mm]","Inhibition zone, B. subtilits [7] [mm]","Inhibition zone, C. albicans [8] [mm]"
"CCOC1Oc2ccccc2C(=O)C1=NNc1ccccc1OC (stereo not shown) [Compound 6b, 2-ethoxy-3-(2-(2-methoxyphenyl)hydrazono)chroman-4-one]",12,0,0,0,0,0,13,16,0,–,–,–,–,–,–,–,–,–,–,–
"CCOC1Oc2ccccc2C(=O)C1=NNc1ccc(Cl)cc1 (stereo not shown) [Compound 6c, 3-[(4-Chlorophenyl)hydrazono]-2-ethoxychroman-4-one]",30,17,18,21,28,26,30,32,20,moderate activity,more potent antifungal effect,–,–,–,–,–,–,–,–,–
Ethoxy-3-[(4-nitro-phenyl)-hydrazono]-chroman-one [Compound 6a],–,–,–,–,–,–,–,–,–,moderate activity,more potent antifungal effect,33,22,22,25,30,27,28,32,24
